In patent publication US9333234B2, “Combination of somatostatin-analogs with 11beta-hydroxylase inhibitors” (Novartis AG, priority 2012, dated 2016):
Like-named read-outs stand apart in the source and are kept apart here. Values belong to the molecule of their own block, whether it stands above or below them. Numbered stars: 1 amine (or outer) side, 2 acyl side, 3 side chain; on linkers, the order of the positions; unused ones are H or OH. Square brackets hold non-standard residues; d marks the D form. Side chains are listed from the residue outwards. Peptide text beside a SMILES is read from it. * marks the point of attachment. Ethylenediamine = C(CN[*:2])N[*:1]; Hyp = O=C(O)[C@@H]1C[C@@H](O)CN1; Phg = N[C@H](C(=O)O)c1ccccc1; CO = O=C([*:1])[*:2]; Bn = c1ccc(C*)cc1

Key:
[1] = system: Cushing's disease patients; settings: Colao et al. N Engl J Med 2012; 366:32-42; cited from earlier work
Wistar Hannover rats = assay type: in vivo; settings: for Serum corticosterone, Change from Control (%): Female rats; for Effects on serum corticosterone (PD marker), in words: compared to control
Excerpt: Another group of rats (10/sex) received daily doses of Ultrapure water, by oral gavage, and the Acetate buffered solution pH 4.5 for injection USP, by subcutaneous injection, and served as controls.
Study activities included clinical examinations, involving twice daily exams for mortality and signs of ill health or reaction to treatment, daily pre-dose and 1-hour post dose cage-side observations, weekly detailed examination, body weights and food consumption, two ophthalmic examinations (pretreatment and week 13), clinical pathology (hematology, coagulation and clinical biochemistry, urinalysis) and immunology at the end of dosing (Adrenocorticotropic hormone, Corticosterone, Growth hormone, Insulin-like growth factor and urinalysis for Corticosterone). […] Post mortem evaluation included macroscopic observations, organ weight assessments (absolute and relative to body) and microscopic examinations.

[2] = Solubility profile, excess solids equilibrated in each solvent; assay type: physicochemical
Experimental: Excess solids were equilibrated in each solvent for over 24 hours at 25° C.±0.1. Concentration in supernatant was measured by gravimetry for organic solvents and by HPLC from aqueous solvents and propylene glycol.

[3] = Solubility and stability in water at 0.1% target concentration, 50° C.; assay type: physicochemical; settings: for stability / behaviour in water: 2 days at 50° C.
[4] = Hygroscopicity, sorption/desorption isotherms (VTI 100 humidity microbalance); assay type: physicochemical; settings: 25° C.
Experimental: Sorption/desorption isotherms were measured using the VTI 100 humidity microbalance (VTI Corporation, Hialeah, Fla., USA). Measurements were carried out at 25° C. Samples were dried under N2 flow at 25° C.

[5] = system: patients with Cushing's disease
Experimental: Dose escalation was planned every 2 weeks to 5, 10, 20 and 50 mg bid until UFC normalized, in which case the dose was maintained until day 70, when treatment stopped. Dose reduction for tolerability was permitted. UFC was assessed on the penultimate day of each 2-week period. Patients were monitored until day 84. The primary endpoint was UFC≦ULN or a ≧50% decrease from baseline at day 70 using the mean of 3 UFC samples collected during the week before day 70.

[6] = Female rats (n = 10), dose —/0.3 (SOM230 0.3 mg/kg/day alone)
[7] = Male rats (n = 10), dose —/0.3 (SOM230 0.3 mg/kg/day alone)
[8] = of the 9 patients who completed the active treatment phase
[9] = patients with Cushing's disease
[10] = Female rats (n = 10), dose 20/— (COMPOUND A 20 mg/kg/day alone)
[11] = Male rats (n = 10), dose 20/— (COMPOUND A 20 mg/kg/day alone)

Absolute adrenal weights (Wistar Hannover rats; [6]): 0.04585 g | Relative adrenal weight (% of body weight) (Wistar Hannover rats; [6]): 0.02432 % of body weight | Absolute adrenal weights (Wistar Hannover rats; [7]): 0.03615 g | Relative adrenal weight (% of body weight) (Wistar Hannover rats; [7]): 0.01326 % of body weight
Structure (SMILES): NCCCC[C@@H]1NC(=O)[C@@H](Cc2c[nH]c3ccccc23)NC(=O)[C@H](c2ccccc2)NC(=O)[C@@H]2C[C@@H](OC(=O)NCCN)CN2C(=O)[C@H](Cc2ccccc2)NC(=O)[C@H](Cc2ccc(OCc3ccccc3)cc2)NC1=O [SOM230, cyclo[{4-(NH2—C2H4—NH—CO—O-)Pro}-Phg-DTrp-Lys-Tyr(4-Bzl)-Phe], reference compound] (cyclo([Hyp]([CO-Ethylenediamine])[Phg][dW]KY(Bn)F))
cortisol levels in Cushing's disease patients [1]: significant decrease of cortisol levels | Mean serum corticosterone level (Wistar Hannover rats; [6]): 190.56 | Serum corticosterone, Change from Control (%) (Wistar Hannover rats; dose —/0.3 (SOM230 0.3 mg/kg/day alone)): −27% | Mean serum corticosterone level (Wistar Hannover rats; [7]): 233.68 | Effects on serum corticosterone (PD marker), in words (Wistar Hannover rats; rats): decreases in serum corticosterone in females only

Structure (SMILES): N#Cc1ccc([C@H]2CCc3cncn32)c(F)c1.O=P(O)(O)O [Phosphate salt, Phosphate Salt of 4-(R)-6,7-dihydro-5H-pyrrolo[1,2-c]imidazol-5-yl-3-fluoro-benzonitrile (Form A)]
Solubility ([2]; Water, over 24 hours at 25° C.): >50 mg/mL | Solubility ([2]; pH 1, over 24 hours at 25° C.): >50 mg/mL | Solubility ([2]; pH 6.8, over 24 hours at 25° C.): >50 mg/mL | solubility in water at the 0.1% target concentration [3]: soluble | stability / behaviour in water [3]: stable | hygroscopicity, water uptake ([4]; 5% RH): 0% | hygroscopicity, water uptake ([4]; 75% relative humidity): 0.9%

Structure (SMILES): N#Cc1ccc([C@H]2CCc3cncn32)c(F)c1 [Compound A, (R)-4-(6,7-Dihydro-5H-pyrrolo[1,2-c]imidazol-5-yl)-3-fluoro-benzonitrile]
Solubility ([2]; Ethanol, over 24 hours at 25° C.): >50 mg/mL | Solubility ([2]; Ethyl Acetate, over 24 hours at 25° C.): >50 mg/mL | Solubility ([2]; organic solvent or mixture, thermodynamic from solid, Acetone, over 24 hours at 25° C., read-out: Solubility): > 50 mg/mL | Solubility ([2]; simulated gastric fluid, thermodynamic from solid, pH 1, over 24 hours at 25° C., read-out: Solubility): > 50 mg/mL | solubility in water at the 0.1% target concentration [3]: largely insoluble | stability / behaviour in water [3]: converted from a free flowing solid into an oily material | ACTH level doubled, share of patients ([5]; 10-week trial): half of the patients | effect on urinary free cortisol (UFC) ([5]; 10-week trial): successfully reduced urinary free cortisol (UFC) in all patients | adverse event fatigue (patients) ([5]; 12 patients enrolled): 7/12 | adverse event headache (patients) ([5]; 12 patients enrolled): 3/12 | adverse event nausea (patients) ([5]; 12 patients enrolled): 4/12 | patients with ACTH levels >2× baseline ([5]; 12 patients enrolled): Five | patients with study drug-related hypokalemia (K+<3.5 mmol/L) ([5]; 12 patients enrolled): Four | mean SBP decrease from baseline ([5]; day 70): 13.1 mmHg | patients with UFC >ULN after treatment discontinuation ([5]; measurements at day 84): 6 patients | patients achieving primary endpoint (UFC≦ULN or ≧50% decrease from baseline at day 70) [5, 8]: 9 patients | patients with normal UFC levels on day 70 [5, 8]: 8 patients | patients with normal UFC levels on at least one assessment during the study ([5]; oral, 2-50 mg bid dose escalation): 11 of 11 | efficacy conclusion [5, 9]: demonstrated efficacy | tolerability / safety profile [5, 9]: satisfactory safety profile | tolerability / safety profile ([5]; patients with Cushing's disease, listed as COMPOUND A): generally well tolerated | Absolute adrenal weights (Wistar Hannover rats; [10]): 0.07002 g | Mean serum corticosterone level (Wistar Hannover rats; [10]): 166.76 | Serum corticosterone, Change from Control (%) (Wistar Hannover rats; dose 20/— (COMPOUND A 20 mg/kg/day alone)): −36% | Absolute adrenal weights (Wistar Hannover rats; [11]): 0.04969 g | Mean serum corticosterone level (Wistar Hannover rats; [11]): 221.83 | adrenalcortical hypertrophy (Wistar Hannover rats; female rats): produced adrenalcortical hypertrophy | Effects on serum corticosterone (PD marker), in words (Wistar Hannover rats; rats): decreases in serum corticosterone in females only | Effects on adrenal gland organ weights, in words (Wistar Hannover rats; rats, more pronounced in females): increased adrenal gland organ weights
